Measurements as given in PubChem BioAssay (NCI).
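The compound was tested at five concentrations on cells cultured in 96-well plates, with a 48-hour exposure period. TGI: total growth inhibition.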

Experiments:
Test in all cases: NCI tumour cell line growth inhibition, 48 h
[1] = system: HCT-15 colon
[2] = system: MALME-3M melanoma
[3] = system: OVCAR-5 ovarian
[4] = system: HL-60(TB) leukemia
[5] = system: SR leukemia
[6] = system: CCRF-CEM leukemia
[7] = system: NCI/ADR-RES ovarian
[8] = system: MDA-N
[9] = system: SW-620 colon
[10] = system: CAKI-1 renal
[11] = system: SK-MEL-2 melanoma
[12] = system: KM12 colon
[13] = system: NCI-H23 lung
[14] = system: K-562 leukemia
[15] = system: M14 melanoma
[16] = system: HOP-62 NSCLC
[17] = system: HS 578T breast
[18] = system: UACC-62 melanoma
[19] = system: A549 NSCLC
[20] = system: OVCAR-3 ovarian

| Compound | TGI [1] | TGI [2] | TGI [3] | TGI [4] | TGI [5] | TGI [6] | TGI [7] | TGI [8] | TGI [9] | TGI [10] | TGI [11] | TGI [12] | TGI [13] | TGI [14] | TGI [15] | TGI [16] | TGI [17] | TGI [18] | TGI [19] | TGI [20] |
| --- | --- | --- | --- | --- | --- | --- | --- | --- | --- | --- | --- | --- | --- | --- | --- | --- | --- | --- | --- | --- |
| Clc1ccc(N=Cc2cc3cc(Br)ccc3nc2Cl)cc1 | > 50 µM | > 50 µM | > 50 µM | 46.4 µM | 42.2 µM | 32.5 µM | > 50 µM | > 50 µM | > 50 µM | > 50 µM | 48.3 µM | > 50 µM | > 50 µM | > 50 µM | > 50 µM | – | – | – | – | – |
| CCC1CCN=C(Cn2cc(C)c(=O)[nH]c2=O)N1 (stereo not given) | > 100 µM | > 100 µM | > 100 µM | – | – | > 100 µM | > 100 µM | > 100 µM | > 100 µM | – | > 100 µM | – | > 100 µM | – | > 100 µM | > 100 µM | > 100 µM | > 100 µM | > 100 µM | – |
| O=C(Nc1ccc(F)cc1)c1cc2ccc(O)cc2oc1=Nc1cccc(F)c1 | 92.2 µM | > 100 µM | > 100 µM | 83 µM | > 100 µM | 71.8 µM | > 100 µM | > 100 µM | > 100 µM | > 100 µM | > 100 µM | > 100 µM | 55.7 µM | > 100 µM | – | > 100 µM | – | > 100 µM | – | > 100 µM |
| O=C1c2cccnc2-c2nccc3ccnc1c23 | 1.8 µM | 3.28 µM | 4.2 µM | 0.185 µM | – | 0.156 µM | – | 0.465 µM | 1.78 µM | 1.32 µM | 4.64 µM | 2.66 µM | 2.11 µM | 0.666 µM | 2.43 µM | 7.95 µM | > 28.3 µM | 1.88 µM | 6.82 µM | 1.49 µM |
| O=C1/C(=C/c2cccc3ccccc23)Cc2ccccc21 | > 100 µM | – | > 100 µM | > 100 µM | > 100 µM | > 100 µM | > 100 µM | – | > 100 µM | > 100 µM | – | > 100 µM | 65.8 µM | > 100 µM | > 100 µM | – | 73.3 µM | > 100 µM | > 100 µM | 91.3 µM |
| O=C1NCN(c2ccccc2)C12CCN(CCCSc1ccc(F)cc1)CC2 | > 100 µM | 52.7 µM | > 100 µM | > 63.6 µM | > 81.7 µM | > 71.4 µM | > 100 µM | – | > 100 µM | > 91.9 µM | 43.3 µM | 65.4 µM | 97.3 µM | > 79.2 µM | 21.7 µM | 97 µM | > 100 µM | > 69 µM | > 100 µM | > 100 µM |
| Cc1cc2nc3c(C#N)c(-c4ccccc4)cc(Nc4cccc(C(F)(F)F)c4)n3c2cc1C | 22.3 µM | > 100 µM | 47.1 µM | – | – | > 100 µM | 20.2 µM | 24.7 µM | 20.7 µM | 40.2 µM | 12.7 µM | > 100 µM | > 100 µM | 1.2 µM | 60.3 µM | 35.2 µM | – | – | 16.8 µM | 8.41 µM |
| CCC(/C=C/c1ccccc1)=N\N=C(\C=C\c1ccccc1)CC | > 100 µM | > 100 µM | > 100 µM | > 100 µM | > 100 µM | > 100 µM | – | – | > 100 µM | – | > 100 µM | > 100 µM | > 100 µM | > 100 µM | > 100 µM | > 100 µM | – | > 100 µM | > 100 µM | > 100 µM |
| CCOC(=O)c1cc(C2(OC)CCN(Cc3ccccc3)C2=O)c(-c2cc(C)no2)[nH]1 (stereo not given) | > 100 µM | > 100 µM | > 100 µM | – | – | – | > 100 µM | > 100 µM | > 100 µM | > 100 µM | > 100 µM | > 100 µM | > 100 µM | > 100 µM | > 100 µM | > 100 µM | > 100 µM | > 100 µM | > 100 µM | > 100 µM |
| CC1(C)CC[C@]2(C(=O)O)CC[C@]3(C)C(=CC[C@@H]4[C@@]5(C)CC[C@@H]6OC(C)(C)OC[C@@]6(C)[C@@H]5CC[C@]43C)[C@H]2C1 | 13.9 µM | 25.6 µM | 32.2 µM | 32.9 µM | 34 µM | 37.1 µM | > 100 µM | 27 µM | 29 µM | – | 32.6 µM | – | – | 40.6 µM | 33.7 µM | 22.9 µM | – | 25.4 µM | – | 18.5 µM |
| CC(C)(C)C1=NN=C2c3ccccc3C(=O)C21 (stereo not given) | > 100 µM | > 100 µM | > 100 µM | > 100 µM | 83 µM | > 100 µM | > 100 µM | – | > 100 µM | > 100 µM | > 100 µM | > 100 µM | > 100 µM | > 100 µM | > 100 µM | > 100 µM | 82.1 µM | > 100 µM | > 100 µM | > 100 µM |
| CC1(C)OC([C@H](O)CO)C([C@H]2NCCS2)O1 (stereo not given in full) | > 100 µM | > 100 µM | > 100 µM | > 100 µM | > 100 µM | > 100 µM | > 100 µM | – | > 100 µM | > 100 µM | > 100 µM | > 100 µM | > 100 µM | > 100 µM | > 100 µM | > 100 µM | > 100 µM | > 100 µM | > 100 µM | > 100 µM |
| CCCN1CN(C(C(=O)N[C@@H]2C(=O)N3C(C(=O)O)=C(C)CSC23)c2ccccc2)CSC1=S (stereo not given in full) | > 100 µM | > 100 µM | > 100 µM | > 100 µM | – | > 100 µM | – | – | – | – | > 100 µM | > 100 µM | > 100 µM | > 100 µM | > 100 µM | > 100 µM | – | > 100 µM | > 100 µM | > 100 µM |
